Test results from patent publication US9260504B2, “N- and C-terminal substituted antagonistic analogs of GH-RH” (University of Miami, priority 2008, dated 2016).

What was measured:
Assay type in all cases: in vivo
Conditions in all cases: 10 μg/day s.c.
[1] = tested on: PC-3 human hormone-independent prostate cancer; test: PC-3 human prostate cancer xenografts in nude mice, Experiment 4
Method: Male nude mice were implanted s.c. with 3 mm^3 pieces of PC-3 human hormone-independent prostate cancer tissue on both flanks. When tumors reached a volume of approximately 50 mm^3, the mice were divided into 12 experimental groups with 8 to 10 animals in each group and received single daily injections for 28 days as follows: 1. Control (vehicle solution); 2. JMR-132 (10 μg/day s.c.); 3. Peptide 11113 (2 μg/day s.c.); 4. Peptide 11119 (2 μg/day s.c.); 5. Peptide 11209 (2 μg/day s.c.); 6. Peptide 11313 (2 μg/day s.c.); 7. Peptide 11408 (2 μg/day s.c.); 8. Peptide 11435 (2 μg/day s.c.); 9. Peptide 11457 (2 μg/day s.c.); 10. Peptide 11459 (2 μg/day s.c.); 11. Peptide 11469 (2 μg/day s.c.); 12. Peptide 11491 (2 μg/day s.c.).
Tumor volumes were measured once a week. The experiment was ended on day 28 by sacrificing the mice under Isoflurane anesthesia. Resulting tumors were cleaned, weighed, and snap-frozen until further analyses. Statistical analyses of the measurement results were done by two-tailed t-test, p<0.05 being considered significant.
All experimental details of Experiment 4 are the same as for Experiment 3, with the following difference. When tumors reached a volume of approximately 50 mm^3, the mice were divided into 11 experimental groups with 8 to 10 animals in each group and received single daily injections for 46 days as follows: 1. Control (vehicle solution); 2. JMR-132 (10 μg/day s.c.); 3. Peptide 11123 (2 μg/day s.c.); 4. Peptide 11125 (2 μg/day s.c.); 5. Peptide 11213 (2 μg/day s.c.); 6. Peptide 11433 (2 μg/day s.c.); 7. Peptide 11473 (2 μg/day s.c.); 8. Peptide 11485 (2 μg/day s.c.); 9. Peptide 11497 (2 μg/day s.c.); 10. Peptide 11499 (2 μg/day s.c.); 11. Peptide 11521 (2 μg/day s.c.). Tumor volumes were measured once a week. The experiment was ended on day 46 by sacrificing the mice under Isoflurane anesthesia. Resulting tumors were cleaned, weighed, and snap-frozen until further analyses. Statistical analyses of the measurement results were done by two-tailed t-test, p<0.05 being considered significant.

[2] = tested on: NCI-N87 human gastric cancer; test: NCI-N87 human gastric cancer xenografts in nude mice
Method: NCI-N87 cancers were transplanted s.c. into both flank areas of 30 female nude mice. The mice were randomly assigned into 4 experimental groups with 6 to 9 animals in each group and received single daily injections for 77 days as follows: 1. Control (vehicle solution); 2. JMR-132 (10 μg/day s.c.); 3. Peptide 1109 (10 μg/day s.c.); 4. Peptide 11479 (10 μg/day s.c.). Tumor volumes were measured once a week. The experiment was ended on day 77 by sacrificing the mice under Isoflurane anesthesia. Resulting tumors were cleaned, weighed, and snap-frozen until further analyses. Statistical analyses of the measurement results were done by two-tailed t-test, p<0.05 being considered significant. Data are presented as the means±S.E.

[3] = tested on: PC-3 human hormone-independent prostate cancer; test: PC-3 human prostate cancer xenografts in nude mice, Experiment 2
Method: Male nude mice were implanted s.c. with 3 mm^3 pieces of PC-3 human hormone-independent prostate cancer tissue on both flanks. When tumors reached a volume of approx. 50 mm^3, the mice were divided into 4 experimental groups with 8 to 10 animals in each group and received single daily injections for 35 days as follows: 1. Control (vehicle solution); 2. JMR-132 (10 μg/day s.c.); 3. Peptide 1109 (10 μg/day s.c.); 4. Peptide 11111 (10 μg/day s.c.); Tumor volumes were measured once a week. The experiment was ended on day 35 by sacrificing the mice under Isoflurane anesthesia. Resulting tumors were cleaned, weighed, and snap-frozen until further analyses. Statistical analyses of the measurement results were done by two-tailed t-test, p<0.05 being considered significant. Data are presented as the means±S.E.
Experiment 2 was similar to Experiment 1. Experiment 2 was started when PC-3 tumors had grown to approximately 50 mm^3 in volume. At this time, the animals were divided into 5 experimental groups with 8 animals in each group, and received single daily injections for 14 days as follows: 1. Control (vehicle solution); 2. JMR-132 (10 μg/day s.c.); 3. Peptide 1109 (5 μg/day s.c.); 4. Peptide 11109 (5 μg/day s.c.); 5. Peptide 11109 (2 μg/day s.c.). Further details of Experiment 2 are the same as for Experiment 1

[4] = tested on: H-460 human non-small cell lung cancer; test: H-460 human non-SCLC xenografts in nude mice, Experiment 2
Method: Male nude mice were implanted s.c. with 3 mm^3 pieces of H-460 human non-SCLC tumor tissue on both flanks. When tumors had grown to a mean volume of approximately 90 mm^3, the mice were randomly assigned into 12 experimental groups with 8 to 10 animals in each group and received single daily injections for 28 days as follows: 1. Control (vehicle solution); 2. JMR-132 (10 μg/day s.c.); 3. Peptide 11109 (5 μg/day s.c.); 4. Peptide 11113 (5 μg/day s.c.); 5. Peptide 11119 (5 μg/day s.c.); 6. Peptide 11209 (5 μg/day s.c.); 7. Peptide 11313 (5 μg/day s.c.); 8. Peptide 11408 (5 μg/day s.c.); 9. Peptide 11435 (5 μg/day s.c.); 10. Peptide 11459 (5 μg/day s.c.); 11. Peptide 11469 (5 μg/day s.c.); 12. Peptide 11491 (5 μg/day s.c.). Tumor volumes were measured once a week. The experiment was ended on day 28 by sacrificing the mice under Isoflurane anesthesia. Resulting tumors were cleaned, weighed, and snap-frozen until further analyses. Statistical analyses of the measurement results were done by two-tailed t-test, p<0.05 being considered significant. Data are presented as the means±S.E.

## [PhAc^0-Tyr^1, D-Arg^2, Cpa^6, Ala^8, Har^9, Tyr(Me)^10, His^11, Abu^15, His^20, Nle^27, D-Arg^28, Har^29]hGH-RH(1-29)NH2 [JMR-132, reference compound]
[1]
  Tumor growth after 28 days (%): 1004%
  Tumor growth after 46 days (%): 1848%
[1]; after 28 days
  Inhibition (%): 26.62%
[1]; after 46 days
  Inhibition (%): 44.52%
[2]; 77 days
  Effect on the growth of NCI-N87 cancers: not effective
  Number of regressing tumors: 2
[2]; 77 days, means±S.E.
  Tumor growth after 77 days (%): 409 ± 78%
[2]; day 77, means±S.E.
  Tumor weights: 407 ± 175 mg
[2]; calculated without the regressing tumors
  Tumor doubling time: 40.8 ± 5.9 days
[3]; 14 days
  Tumor growth after 2 weeks (%): 432%
[3]; tumor growth after 2 weeks
  Inhibition (%): 39.61%
[4]; 28 days, means±S.E.
  Tumor growth after 4 weeks (%): 11537 ± 8215%
[4]; after 4 weeks, negative = stimulation
  Inhibition (%): (−46.14) %
